Assay results: patent US20240199642A1, “METHOD FOR OBTAINING RIFAPENTINE WITH A NEW CRYSTALLINE FORM” (INTERQUIM S.A. DE C.V., priority 2021, published 2024)

Legend:
[1] = hygroscopicity under normal handling and storage conditions; type: physicochemical
[2] = stability under normal storage conditions and normal formulation manipulations; type: physicochemical

- hygroscopicity ([1]; normal handling and storage conditions): non-hydroscopic
- hygroscopicity ([1]; normal storage conditions and normal formulation manipulations): non-hygroscopic
- stability [2]: stable
SMILES: CO[C@H]1/C=C/O[C@@]2(C)Oc3c(C)c(O)c4c(O)c(c(/C=N/N5CCN(C6CCCC6)CC5)c(O)c4c3C2=O)NC(=O)/C(C)=C\C=C\[C@H](C)[C@H](O)[C@@H](C)[C@@H](O)[C@@H](C)[C@H](OC(C)=O)[C@@H]1C [crystalline form of rifapentine, Rifapentine]
